Earlier results in paper PMC7340670, “Phase I study of TAS-115, a novel oral multi-kinase inhibitor, in patients with advanced solid tumors” (Investigational New Drugs, 2019).

What was measured:
[1] = system: patients with solid tumours; parameters: method as in PMID 21606412; settings: phase I study for solid tumours; cited from earlier work
[2] = system: circulating sMET; parameters: method as in PMID 21606412, PMID 21156020, PMID 24687921; settings: previous clinical studies; cited from earlier work

Compound: COc1cc2nccc(Oc3ccc(NC(=O)C4(C(=O)Nc5ccc(F)cc5)CC4)cc3)c2cc1OC [cabozantinib]
- TRAE decreased appetite [1]: 48%
- TRAE diarrhea [1]: 57%
- TRAE fatigue [1]: 55%
- TRAE nausea [1]: 43%
- TRAEs neutropenia, anemia, hypophosphatemia, and thrombocytopenia [1]: not observed
- levels of circulating sMET [2]: Increased levels

Compound: onartuzumab: agent of a previous clinical study in which increased circulating sMET was reported (ref 21)
- levels of circulating sMET [2]: Increased levels

Compound: rilotumumab: agent of a previous clinical study in which increased circulating sMET was reported (ref 20)
- levels of circulating sMET [2]: Increased levels
